Data set [1] has as its system beet armyworm (BAW; Spodoptera exigua: Lepidoptera). Put plainly: 128-well diet tray assay on beet armyworm (BAW 50). The format is in vivo. The conditions noted are these: 144 h, 50 ug/cm^2 of test compound on diet, second instar BAW larvae, 25° C., six days, average of eight wells, read-out: BAW 50 (percent mortality). As to the method:
(§1) Bioassays on beet armyworm (BAW; Spodoptera exigua: Lepidoptera) were conducted using either a 96-well microtiter plate-based high throughput (HTS) bioassay or a 128-well diet tray assay. The HTS assay is a based on a modification of Lewer et al. J. Nat. Prod. 2006, 69, 1506. BAW eggs were placed on top of artificial diet (100 microliters (μL)) in each well of 96-well microtiter plate. The diet was pretreated with test compounds (12 micrograms (μg) dissolved in 30 μL of DMSO-acetone-water mixture) layered on top of the diet using a liquid handling system and then allowed to dry for several hours. Infested plates were then covered with a layer of sterile cotton batting and the plate lid, and then held in the dark at 29° C. Mortality was recorded at 6 days (d) post-treatment. Each plate had six replicates. The percent mortality was calculated from the average of the six replicates. In the case of the 128-well diet assay, three to five second instar BAW larvae were placed in each well (3 mL) of the diet tray that had been previously filled with 1 mL of artificial diet to which 50 ug/cm^2 of the test compound (dissolved in 50 μL of 90:10 acetone/water mixture) had been applied (to each of eight wells) and then allowed to dry. Trays were covered with a clear self-adhesive cover, and held at 25° C., 14:10 light:dark for six days. Percent mortality was recorded for the larvae in each well; activity in the eight wells was then averaged. In Table 2 under both the BAW HTS and the BAW 50 headings, an “A” means that the compound was tested and at least 50 percent mortality was observed whereas, “B” means that either (1) the compound was tested and less than 50 percent mortality was observed or (2) the compound was not tested.

The test system is the same in data set [2]. Put plainly: 96-well microtiter plate-based high throughput (HTS) bioassay on beet armyworm (BAW HTS). In kind it is in vivo. To be noted: 96-well plate; 12 μg test compound on 100 μL diet; BAW eggs; 29° C.; 6 days post-treatment; average of six replicates. How it is done: as §1

A word on the mortality: it is the percentage killed. With `CO[C@@H]1[C@@H](OC)[C@H](C)O[C@@H](OC2Cc3ccc(-c4ccnc(-c5ccc(C(F)(F)F)cc5)n4)cc3C2)[C@@H]1OC` (stereo partly drawn) [Compound 4C, 2-(4-Trifluoromethylphenyl)-4-[2-((2R,3R,4R,5S,6S)-3,4,5-trimethoxy-6-methyl-tetrahydropyran-2-yloxy)-indan-5-yl]-pyrimidine], the mortality at 50 µg/cm2 in data set [1] is greater than 50%. The “BAW HTS (percent mortality)” value in data set [2] is “B (either (1) the compound was tested and less than 50 percent mortality was observed or (2) the compound was not tested)”.
For `CO[C@@H]1[C@@H](OC)[C@H](C)O[C@@H](OC2Cc3ccc(-c4ccn(-c5ccc(OC(F)(F)C(F)(F)F)cc5)n4)cc3C2)[C@@H]1OC` (some centres unmarked) [Compound 10C], in data set [1], the mortality at 50 µg/cm2 is greater than 50%. Moreover, the “BAW HTS (percent mortality)” value in data set [2] is “A (the compound was tested and at least 50 percent mortality was observed)”.
For the compound `CO[C@@H]1[C@@H](OC)[C@H](C)O[C@@H](OC2Cc3ccc(-c4ccn(-c5nnc(C(F)(F)F)s5)n4)cc3C2)[C@@H]1OC` (stereo partly drawn) [Compound 9C, 2-trifluoromethyl-5-{3-[2-((2R,3R,4R,5S,6S)-3,4,5-trimethoxy-6-methyl-tetrahydropyran-2-yloxy)-indan-5-yl]-pyrazol-1-yl}-[1,3,4]thiadiazole], the mortality at 50 µg/cm2 in data set [1] is greater than 50%. Further, in data set [2], the “BAW HTS (percent mortality)” value is “A (the compound was tested and at least 50 percent mortality was observed)”.
With `CO[C@@H]1[C@@H](OC)[C@H](C)O[C@@H](OC2Cc3ccc(-c4ccnc(-c5cccnc5)n4)cc3C2)[C@@H]1OC` (stereo partly drawn) [Compound 6C, 2-Pyridin-3-yl-4-[2-((2R,3R,4R,5S,6S)-3,4,5-trimethoxy-6-methyl-tetrahydropyran-2-yloxy)-indan-5-yl]-pyrimidine], the mortality at 50 µg/cm2 in data set [1] was less than 50%. Further, in data set [2], the “BAW HTS (percent mortality)” value was “B (either (1) the compound was tested and less than 50 percent mortality was observed or (2) the compound was not tested)”.
As to `COc1ccc(-c2nccc(-c3ccc4c(c3)CC(O[C@@H]3O[C@@H](C)[C@H](OC)[C@@H](OC)[C@H]3OC)C4)n2)cc1` (stereo partly drawn) [Compound 5C, 2-(4-methoxyphenyl)-4-[2-((2R,3R,4R,5S,6S)-3,4,5-trimethoxy-6-methyl-tetrahydropyran-2-yloxy)-indan-5-yl]-pyrimidine], the mortality at 50 µg/cm2 in data set [1] was greater than 50%. In addition, the “BAW HTS (percent mortality)” value in data set [2] was “A (the compound was tested and at least 50 percent mortality was observed)”.
Consider `CO[C@@H]1[C@@H](OC)[C@H](C)O[C@@H](OC2Cc3ccc(-c4ccnc(-c5ccc(Cl)cc5)n4)cc3C2)[C@@H]1OC` (stereo partly drawn) [Compound 1C, 2-(4-Chlorophenyl)-4-[2-((2R,3R,4R,5S,6S)-3,4,5-trimethoxy-6-methyl-tetrahydropyran-2-yloxy)-indan-5-yl]-pyrimidine], for which the mortality at 50 µg/cm2 in data set [1] was greater than 50%. The “BAW HTS (percent mortality)” value in data set [2] is “B (either (1) the compound was tested and less than 50 percent mortality was observed or (2) the compound was not tested)”.
For `CO[C@@H]1[C@@H](OC)[C@H](C)O[C@@H](OC2Cc3ccc(-c4ccnc(-c5ccccc5)n4)cc3C2)[C@@H]1OC` (stereo partly drawn) [Compound 7C, 2-Phenyl-4-[2-((2R,3R,4R,5S,6S)-3,4,5-trimethoxy-6-methyl-tetrahydropyran-2-yloxy)-indan-5-yl]-pyrimidine], the mortality at 50 µg/cm2 in data set [1] is less than 50%. Besides, the “BAW HTS (percent mortality)” value in data set [2] was “B (either (1) the compound was tested and less than 50 percent mortality was observed or (2) the compound was not tested)”.
For the compound `CO[C@@H]1[C@@H](OC)[C@H](C)O[C@@H](OC2Cc3ccc(-c4ccnc(-c5ccc(Cl)cc5Cl)n4)cc3C2)[C@@H]1OC` (stereo partly drawn) [Compound 2C, 2-(2,4-Dichlorophenyl)-4-[2-((2R,3R,4R,5S,6S)-3,4,5-trimethoxy-6-methyl-tetrahydropyran-2-yloxy)-indan-5-yl]-pyrimidine], in data set [1], the mortality at 50 µg/cm2 is less than 50%. For the same compound, the “BAW HTS (percent mortality)” value in data set [2] is “A (the compound was tested and at least 50 percent mortality was observed)”.
On to `CO[C@@H]1[C@@H](OC)[C@H](C)O[C@@H](OC2Cc3ccc(-c4ccn(-c5ccc(C(F)(F)F)cn5)n4)cc3C2)[C@@H]1OC` (stereo partly drawn) [Compound 8C, 5-trifluoromethyl-2-{3-[2-((2R,3R,4R,5S,6S)-3,4,5-trimethoxy-6-methyl-tetrahydropyran-2-yloxy)-indan-5-yl]-pyrazol-1-yl}-pyridine], for which the mortality at 50 µg/cm2 in data set [1] was greater than 50%. In data set [2], the “BAW HTS (percent mortality)” value was “A (the compound was tested and at least 50 percent mortality was observed)”.
Regarding `CO[C@@H]1[C@@H](OC)[C@H](C)O[C@@H](OC2Cc3ccc(-c4ccnc(-c5cccc(C(F)(F)F)c5)n4)cc3C2)[C@@H]1OC` (stereo partly drawn) [Compound 3C, 2-(3-Trifluoromethylphenyl)-4-[2-((2R,3R,4R,5S,6S)-3,4,5-trimethoxy-6-methyl-tetrahydropyran-2-yloxy)-indan-5-yl]-pyrimidine], in data set [1], the mortality at 50 µg/cm2 was greater than 50%. Further, the “BAW HTS (percent mortality)” value in data set [2] is “B (either (1) the compound was tested and less than 50 percent mortality was observed or (2) the compound was not tested)”.

The values are drawn from patent publication US8383786B2, “Pesticidal compositions” (Dow AgroSciences, LLC., priority 2009, dated 2013).
